Laboratory results as given in the NIST ThermoML archive (doi:10.1016/j.jct.2019.02.001).
Where “and” joins values, the source holds several entries; their conditions need not be identical. Identical values can stand only once. ± gives the expanded uncertainty stated by the source.

Experiment: molar enthalpy of vaporization or sublimation
Conditions: 298.15 K; Liquid; Static calorimetry

SMILES	molar enthalpy
CCCCCCCCCC [decane]	49.9 kJ/mol and 52.2 kJ/mol
CCOC(=O)c1ccccc1N [ethyl 2-aminobenzoate]	71 ± 1.3 kJ/mol
CCOC(=O)c1cccc(N)c1 [ethyl 3-aminobenzoate]	83.2 ± 2.2 kJ/mol
